{"source": "patent US4665086A", "about": "“Method for minimizing disturbances in circadian rhythms of bodily performance and function” (priority 1983, dated 1987)", "key": {"[1]": {"tested_on": "body temperature rhythm in humans (shift work)", "assay": "Example 10: Subject F, simulated rapid rotating shift work roster, double blind melatonin vs placebo, rectal temperature", "type": "in vivo, human", "conditions": "for sleep induction: from diary descriptions", "experimental": "The subject was a […] psychology lecturer who had never taken Melatonin before. In order to evaluate the effects of Melatonin on adaptation to rotating shift work conditions the subject undertook three, eight hour phase advances in their sleep-wake/work-rest schedule at six day intervals. Melatonin was administered under double blind conditions on the first phase advance and placebo taken on the second. […] This entrainment was not a secondary consequence of sleep induction. The data can be taken as evidence for Melatonin as an effective chronobiotic for adaptation to shiftwork.\nThe experiment was designed to incorporate the salient features of a rapidly rotating shift-work schedule combined with aspects of lighting changes encountered on destination arrival after intercontinental jet flight. […] The experimental protocol differed from that normally found in shift work in that the subject had to spend the dark period in bed in an isolation unit irrespective of whether sleepiness was felt or not; whereas, no sleep was allowed during the light period no matter how tired the subject felt. During the light period the subject was free to leave the isolation unit to engage in work or leisure related activities.\nThe experiment was carried out over the long vacation, the isolated unit being situated half below ground under one of the residential colleges on La Trobe University Campus. The area was, therefore, fairly well buffered against external noise and a ventilation exhaust fan was continuously running, which aided extraneous noise reduction. Windows located high up on the walls of the kitchen alcove and shower/toilet rooms were blacked out. The main sleeping-living room was illuminated by two fluorescent tubes (40 watt) while the alcove and bathroom areas had one, 40 watt, fluorescent light in each. All lights were controlled by a single time clock set to give an LD 16:8 cycle, lights on at 0730 hours during baseline. A bedside lamp was used for reading during the light period. No lighting was allowed during the dark period for any reason. Therefore, events such as quenching of thirst and urination had to take place in total darkness. Temperature of the isolation area was maintained within the range 20°-22° C. throughout the experiment. During stage A and pre-baseline breakfast was ingested between 0800 and 0900, lunch between 1300 and 1400, and dinner between 1800 and 2000. During stages B and C meals and intermeal intervals were scheduled for equivalent times (relative to lights on) to those during stage A.\nDuring stages B and C the subject was instructed to take one capsule just prior to lights off. If still awake one hour later, the subject was to take a second capsule. Similar instructions applied to the second and third hours after lights-off but no capsule was to be taken during the last four hours of darkness i.e. maximum number of capsules to be taken was four. Capsules were refrigerated and had to be taken in complete darkness once lights were off. A double blind procedure was employed with stage B being drug (Melatonin, Sigma, 5mg/capsule) and stage C being placebo (sucrose filled capsule). No capsules were taken on the final dark period at the end of each stage i.e. days 10 and 16.\nRectal temperature was sampled every 12 minutes using a Vitalog PMS 8 portable microcomputer. A diary of life events was kept. These included details of sleep, work, leisure, meals, beverages, urination and defecation. […]"}, "depressed patients": {"tested_on": "depressed patients", "conditions": "cited from earlier work"}, "human subjects": {"tested_on": "human subjects", "conditions": "pharmacological doses; cited from earlier work"}, "[2]": {"tested_on": "circadian rhythms in humans (jet lag)", "assay": "Example 3: Subject A, flight Melbourne-Stockholm-London-Melbourne, melatonin at local bedtime", "type": "in vivo, human", "conditions": "5 mg oral", "source_text": "|Subject A Flight from Melbourne → Stockholm → London |Detail of activity schedule, sleeping times, melatonin adminsitration."}, "[3]": {"tested_on": "circadian rhythms in humans (jet lag)", "assay": "Example 6: Subject C, flight Melbourne-Los Angeles-Washington-London-Vancouver-Melbourne, verbatim account", "type": "in vivo, human", "conditions": "for overall effect on jet-lag (subject's impression, comment): 5 mg capsule on retiring and a second on awaking", "experimental": "Subject C Flight from Melbourne→Los Angeles→Washington→London→Vancouver→Melbourne. 15.2.84-27.3.84 The subject, a Professor who had never taken Melatonin before, was given gelatin capsules containing 5 mg Melatonin and instructed to take one capsule on going to bed in the evening (local time) after arrival at their destination, and to take a further capsule if they awoke in the night."}, "[4]": {"tested_on": "circadian rhythms in humans (jet lag)", "assay": "Example 1: Subject A, flight Melbourne-North Carolina-Melbourne, melatonin at local bedtime", "type": "in vivo, human", "source_text": "Subject A was a Professor of Physiology who had never taken melatonin before. |Flight from Melbourne → North Carolina, U.S.A. → Melbourne. |Details of activity schedule, sleeping time, melatonin administration. In this example Subject A used a preparation of crystalline melatonin in a gelatin capsule."}, "[5]": {"assay": "Example 9: absorption and clearance of orally administered melatonin, plasma radioimmunoassay", "type": "in vivo, human", "source_text": "This was two hours after a light breakfast of apple juice, cereal and tea. Blood sampling was continued until 1400 hrs. The blood was immediately centrifuged, and the plasma frozen until assayed for melatonin using a specific radioimmunoassay developed in the inventors' laboratory as a modification of the procedure originally described by D. J. Kennaway et al. (Endocrinology 110, 1766, 1982.) The results are shown in the accompanying FIG. 2."}, "[6]": {"tested_on": "free-running circadian activity rhythm of rats", "conditions": "pharmacological doses, only when given at onset of spontaneous activity; cited from earlier work"}, "[7]": {"tested_on": "circadian rhythms in humans (jet lag)", "type": "in vivo, human", "experimental": "Subject D Flight from Melbourne→London→Edinburgh→London→Melbourne 23.3.84-2.4.84 The subject, a Clinical Professor who had never taken Melatonin before, was given gelatin capsules containing 5 mg Melatonin and instructed to take one capsule on going to bed in the evening (local time) after arrival at their destination, and to take a further capsule if they awoke in the night."}}, "note": "“Also recorded” adds a separate entry of the source. Like-named read-outs stand apart in the source and are kept apart here.", "data": [{"smiles": "COc1ccc2[nH]cc(CCNC(C)=O)c2c1", "note": "[melatonin, 5-methoxy-N-acetyltryptamine]", "values": [{"measurement": "time to fall asleep after lights out (diary, Table 2)", "setting": "[1]; Subject F, 22.1.84, first complete day after first phase shift, capsule taken 1515", "value": "approx. 30 minutes"}, {"measurement": "time by which temperature rhythm was re-established and in phase with the new light-dark cycle", "setting": "[1]; Subject F, first 8 hour advance of darkness", "value": "by the third complete day after the phase shift (day 8)"}, {"measurement": "entrainment of body (rectal) temperature rhythm", "setting": "[1]; Subject F, first 8 hour phase advance, 5 mg/capsule before lights off, double blind, contrast to placebo", "value": "good and accelerated entrainment of the body temperature rhythm; also recorded: phase shifted the rectal temperature rhythm"}, {"measurement": "sleep induction", "setting": "[1]; Subject F", "value": "did not have the same potent sleep induction as reported by other subjects after intercontinental flight"}, {"measurement": "sleep induction", "setting": "[1]; Subject F, listed as Melatonin", "value": "aided sleep induction"}, {"measurement": "effect on symptoms of depressed patients", "setting": "depressed patients", "value": "exacerbation of symptoms including florid psychotic episodes"}, {"measurement": "effect on sleep", "setting": "human subjects", "value": "induces drowsiness and sleep"}, {"measurement": "sleep after taking melatonin (diary, comment)", "setting": "[2]", "value": "sleep well at an inappropriate time of the day"}, {"measurement": "feeling jet-lagged (comment)", "setting": "[2]; 8-9 hour time change", "value": "At no time during the day either in Sweden or on their return to Melbourne did they feel jet-lagged"}, {"measurement": "feeling on awakening / during day after melatonin sleep (diary)", "setting": "[2]; listed as Melatonin", "value": "Feeling fine; also recorded: Felt good; also recorded: feeling good; also recorded: Felt fine"}, {"measurement": "sleep after taking melatonin (diary, comment)", "setting": "[2]; listed as Melatonin", "value": "fell asleep again; also recorded: good sleep; also recorded: slept well; also recorded: sleep until 2330 hrs; also recorded: asleep 2400 hrs"}, {"measurement": "time to fall asleep after taking melatonin (diary)", "setting": "[2]; return flight after Singapore", "value": "3/4"}, {"measurement": "overall effect on jet-lag (subject's impression, comment)", "setting": "[3]", "value": "prevented the usual, unpleasant symptoms associated with rapid changes in time zones"}, {"measurement": "overall effect on jet-lag (subject's impression, comment)", "setting": "[3]; listed as Melatonin", "value": "great improvement over my normal experience of jet-lag"}, {"measurement": "feeling / adjustment the day after melatonin", "setting": "[3]; Los Angeles, London (5 h change), Vancouver (8 h change)", "value": "felt very close to normal; also recorded: feeling normal and appeared to be fully adjusted to the London time; also recorded: felt a little unusual and later, around 4.00 pm felt very sleepy"}, {"measurement": "sleep after taking melatonin", "setting": "[3]; first night in Los Angeles", "value": "sleep that night appeared normal"}, {"measurement": "symptoms of jet lag / fatigue (comment)", "setting": "[4]; 2.5-5.0 mg oral melatonin at bedtime and on waking", "value": "no symptoms of jet lag whatsoever; also recorded: never felt any fatigue whatsoever"}, {"measurement": "feeling on awakening after melatonin sleep (diary)", "setting": "[4]; 2.5 or 5.0 mg oral per dose", "value": "Felt fresh, relaxed, not jet-lagged; also recorded: felt fresh, relaxed"}, {"measurement": "sleep after taking melatonin (diary)", "setting": "[4]; 2.5 or 5.0 mg oral per dose", "value": "fell asleep again"}, {"measurement": "time to fall asleep again after taking additional melatonin", "setting": "[4]; awoke during the night in North Carolina, oral crystalline melatonin in gelatin capsule", "value": "≤ 15", "unit": "min"}, {"measurement": "plasma melatonin concentration at which subjective feelings of drowsiness were experienced", "setting": "[5]; Subject A, 5 mg oral", "value": "exceeded 2 ng/ml"}, {"measurement": "subjective effects coincident with maximal plasma levels", "setting": "[5]; Subject A, 5 mg oral", "value": "yawning and sleepiness"}, {"measurement": "Tmax", "setting": "[5]; human, plasma, po, 5 mg, Subject A, 5 mg oral in gelatin capsule, read-out: time after ingestion to peak plasma concentration (converted)", "value": 1.1, "unit": "h"}, {"measurement": "plasma values 260 minutes after ingestion relative to normal nocturnal values of around 100 pg/ml plasma", "setting": "[5]; in vivo, po", "value": 10, "unit": "times higher"}, {"measurement": "entrainment of free-running circadian activity rhythm", "setting": "[6]", "value": "could entrain the free-running circadian activity rhythm of rats"}, {"measurement": "sleep after taking melatonin", "setting": "[7]; Subject D, 5 mg (5+5 mg on Bombay-London leg), listed as Melatonin", "value": "did not induce sleep when taken on the outward journey"}, {"measurement": "napping during daytime meeting talks", "setting": "[7]; Subject D, much less than when using Mogadon", "value": "napped minimally"}, {"measurement": "effects of discontinuing melatonin", "setting": "[7]; human, in vivo", "value": "no adverse effects"}]}]}
